{
  "source": "patent US20240390434A1",
  "about": "“PROBIOTIC ENHANCERS AND USES THEREOF” (Blis Technologies Limited, priority 2021, published 2024)",
  "key": {"S. sobrinus OMZ176": {"test_system": "S. sobrinus OMZ176", "experiment": "Deferred antagonism assay, producer S. salivarius M18", "assay_type": "cell-based", "conditions": "Streptococcus sobrinus, read-out: Size of zone inhibition normalised to control, S. sobrinus OMZ176", "protocol": "1-2 producer strain colonies were transferred from a stock plate into 900 μL of suspension solution using a fresh cotton swab. Following this, suspensions were vortexed, and a sample was inoculated onto solid culture media using a fresh cotton swab. The inoculation was a streak that runs diametrically across the agar plate in a 1.5 cm wide strip. The plate was then incubated. Following incubation all visible colonies were removed by swabbing them from the agar surface. The plates were then treated with chloroform by dispensing 2 ml of chloroform onto 4 cm×4 cm piece of cloth and sealing the inverted agar plate on top for 30 minutes. The plates were then air dried for 30 minutes following chloroforming. 1-2 indicator strain colonies were then transferred from a stock plate into complementary suspension solution. The suspensions were then vortexed, and a sample was inoculated onto the same agar surface. These samples were streaked in a perpendicular direction to the initial producer streak.\nEach indicator streak was prepared with fresh a suspension containing cells from a corresponding stock plate containing the indicator strain of interest. Indicator strains suspension samples were transferred using a fresh cotton swab. Results were measured by qualitatively reviewing the subsequent (if any) sizes of the zones of inhibition (ZOI) of indicator strain colony growth. A positive result is when there is a distinctive reduction or complete inhibition of indicator colony growth on the culture medium.\nMethod: CABCa agar plates were prepared with or without 0.5, 1.25, 1.7, 2.5, 3.3 and 5% galactose by the addition of 0.5% (w/v) calcium carbonate to solid CAB agar in bottles and then melted by autoclaving at 110° C. for 10 mins. Once cooled, filter sterilised solutions of the saccharides or distilled water were added and mixed and then 20 ml pipetted into petri dishes.\nA deferred antagonism assay was conducted using K12 or M18 raw ingredient suspended in Todd Hewitt broth (THB). This was spread as a 1.2 cm streak containing approximately 1-2×10^6 cfu down the middle of a CABCa control or CABCa galactose supplemented test plate. After 18 hrs growth at 37° C. with 5% CO2, bacterial growth was removed, and the pH of the agar in the initial streak was measured and adjusted to a pH of 6.5-7.5 using 0.5M sodium carbonate pH11 before sterilizing the agar surface using chloroform vapor. Bacterial test strains were suspended in i-THB before being swabbed across the plates perpendicular to the initial streak. Plates were incubated for a further 18 hrs incubation at 37° C. with 5% CO2 before measuring (mm) any zones of inhibition for each test strain, […]"}, "[1]": {"test_system": "bacterial indicator strains", "experiment": "Split plate inhibitory activity of K12 in infant formula or whole milk powder (overall)", "assay_type": "cell-based", "conditions": "galactose 0.5% w/w or raffinose 2.5% w/w added", "protocol": "The following method was used to measure the inhibitory effect of S. salivarius K12 in the context of the powder formulations. Exactly 40 mL of 50° C. molten CAB agar containing 0.5% calcium carbonate (CABCa) was poured in agar plates (120×120 mm). Once the agar was set upon cooling, it was split in the middle and half of the agar gel was removed. The other half was left on the plate as Blank agar marked as side “A”. Approximately, 0.8 g of each combination (DDJ powder with (1) galactose, (2) raffinose or (3) combination of raffinose and galactose) was mixed with 1 mL of sterile distilled water and vortexed to produce a homogeneous suspension. 100 μl of the suspension was reserved for spreading on the surface of agar (producer side B). The remaining suspension was then mixed with 20 mL of molten CABCa agar and the mixture was poured into the empty half of the agar plate to form producer side “B”. The 100 μL of the reserved suspension was spread over the surface on side B and the plates were incubated for 18 h, 37° C., 5% CO2 in air. […] The pH of the producer side was measured and adjusted to 6.5-7.5 by soaking into the agar a solution of 0.5 M sodium carbonate pH 11. […] The zone of inhibition of each indicator strain was measured (in mm) using a ruler. Results were also read using a macroscope to establish presence of small colonies or complete inhibition zones. […]"}},
  "data": [
    {"molecule": "O=C[C@H](O)[C@@H](O)[C@@H](O)[C@H](O)CO", "note": "[Galactose, D-galactose]", "values": [
      {"measurement": "zone of inhibition at 0.5 % strength", "setting": "S. sobrinus OMZ176; Galactose 0.5% w/w", "result": 0, "unit": "mm"},
      {"measurement": "zone of inhibition at 1.25 % strength", "setting": "S. sobrinus OMZ176; Galactose 1.25% w/w", "result": 0, "unit": "mm"},
      {"measurement": "zone of inhibition at 1.7 % strength", "setting": "S. sobrinus OMZ176; Galactose 1.7% w/w", "result": 0, "unit": "mm"},
      {"measurement": "zone of inhibition at 2.5 % strength", "setting": "S. sobrinus OMZ176; Galactose 2.5% w/w", "result": 0, "unit": "mm"},
      {"measurement": "zone of inhibition at 3.3 % strength", "setting": "S. sobrinus OMZ176; Galactose 3.3% w/w", "result": 0, "unit": "mm"},
      {"measurement": "zone of inhibition at 5 % strength", "setting": "S. sobrinus OMZ176; Galactose 5% w/w", "result": 0, "unit": "mm"},
      {"measurement": "inhibitory activity of K12 in infant formula compared to the control", "setting": "[1]", "result": "reduction in inhibitory activity"}
    ]},
    {"molecule": "OC[C@H]1O[C@H](OC[C@H]2O[C@H](O[C@]3(CO)O[C@H](CO)[C@@H](O)[C@@H]3O)[C@H](O)[C@@H](O)[C@@H]2O)[C@H](O)[C@@H](O)[C@H]1O", "note": "[Raffinose, D-(+) Raffinose pentahydrate]", "values": [
      {"measurement": "inhibitory activity of K12 in infant formula compared to the control", "setting": "[1]", "result": "reduction in inhibitory activity"}
    ]}
  ]
}
